According to ChEMBL document CHEMBL1125839, “Synthesis and pharmacological evaluation of ether and related analogues of delta 8-, delta 9-, and delta 9,11-tetrahydrocannabinol” (J Med Chem, 1991):

Legend:
Mus musculus [1] = assay: The compound was tested in vivo for locomotor activity in mice; type: functional
Mus musculus [2] = assay: The compound was tested in vivo for tail-flick latency in mice; type: functional
Mus musculus [3] = assay: The compound was tested in vivo for hypothermic activity in mice; type: functional
Cannabinoid receptor [4] = target: T1, Cannabinoid receptor (Rattus norvegicus, UniProt Q9QZN9+P20272); assay: The compound was tested in vitro for binding activity against THC cannabinoid receptor site, using 3H-CP-55940 as the radioligand; type: protein assay
Mus musculus [5] = assay: The compound was tested in vivo for ring immobility in mice; type: functional
Cannabinoid receptor [6] = target: T1, Cannabinoid receptor; assay: The compound was tested in vitro for binding activity against THC cannabinoid receptor site, using 3H-CP-55940 as the radioligand.; type: protein assay

In the case of `C=C1CC[C@@H]2[C@@H](C1)c1c(O)cc(CCC)cc1OC2(C)C`, the ED50 (Mus musculus [1]) is reported as 20 mg/kg, the MPE50 (Mus musculus [2]) is reported as 15 mg/kg and the ED50 (Mus musculus [3]) is reported as > 30 mg/kg. The IC50 (Cannabinoid receptor [4]) was 1400 nM and the ED50 (Mus musculus [5]) was > 30 mg/kg.
With `CCCCCc1cc(OCCN2CCOCC2)c2c(c1)OC(C)(C)[C@@H]1CC=C(C)C[C@@H]21` the ED50 (Mus musculus [1]) was > 100 mg/kg, the MPE50 (Mus musculus [2]) was >100 mg/kg and the ED50 (Mus musculus [3]) was > 100 mg/kg. It also gave an IC50 (Cannabinoid receptor [6]) of 4.3 µM and an ED50 (Mus musculus [5]) of 118 mg/kg.
For `CCCCCc1cc(O)c2c(c1)OC(C)(C)[C@@H]1CC=C(C)C[C@@H]21` [DELTA-8-TETRAHYDROCANNABINOL], the ED50 (Mus musculus [1]) was 1.9 mg/kg, the MPE50 (Mus musculus [2]) was 1.5 mg/kg and the ED50 (Mus musculus [5]) was 5.2 mg/kg.
In the case of `C=C1C[C@H]2c3c(O)cc(CCCCC)cc3OC(C)(C)[C@@H]2C[C@H]1O`, the ED50 (Mus musculus [1]) is reported as 20 mg/kg, the MPE50 (Mus musculus [2]) is reported as 25 mg/kg and the ED50 (Mus musculus [3]) is reported as 50 mg/kg. It also gave an IC50 (Cannabinoid receptor [4]) of 1200 nM and an ED50 (Mus musculus [5]) of 63 mg/kg.
`CCCCCc1cc(OC)c2c(c1)OC(C)(C)[C@@H]1CC=C(C)C[C@@H]21` was tested, and the ED50 (Mus musculus [1]) was > 100 mg/kg, the MPE50 (Mus musculus [2]) was 33 mg/kg and the ED50 (Mus musculus [3]) was > 100 mg/kg. The IC50 (Cannabinoid receptor [4]) was 3200 nM and the ED50 (Mus musculus [5]) was > 100 mg/kg.
`CCCCCc1cc(O)c2c(c1)OC(C)(C)[C@@H]1CCC(C)=C[C@@H]21` [DRONABINOL] gave an ED50 (Mus musculus [1]) of 1 mg/kg, an MPE50 (Mus musculus [2]) of 1.4 mg/kg and an ED50 (Mus musculus [3]) of 1.4 mg/kg. For the same compound, the ED50 (Mus musculus [5]) was 1.5 mg/kg.
In the case of `CCCCCc1cc(OC)c2c(c1)OC(C)(C)[C@@H]1CCC(C)=C[C@@H]21`, the ED50 (Mus musculus [1]) is reported as > 100 mg/kg, the MPE50 (Mus musculus [2]) is reported as 116 mg/kg and the ED50 (Mus musculus [3]) is reported as 267 mg/kg. It also gave an IC50 (Cannabinoid receptor [4]) of 10000 nM and an ED50 (Mus musculus [5]) of 17 mg/kg.
`C=C1CC[C@@H]2[C@@H](C1)c1c(O)cc(CCCCC)cc1OC2(C)C` gave an ED50 (Mus musculus [1]) of 15 mg/kg, an MPE50 (Mus musculus [2]) of 5.4 mg/kg and an ED50 (Mus musculus [3]) of 56 mg/kg. For the same compound, the ED50 (Mus musculus [5]) was 24 mg/kg.
